Laboratory results taken from patent US10391095B2, “DNA-PK inhibitors” (Vertex Pharmaceuticals Incorporated, priority 2012, dated 2019).

Biological target: DNA-PK (Homo sapiens, UniProt P78527)
Assay: DNA-PK inhibition assay (radiometric, 33P-ATP)
Type: biochemical
Conditions: 100 μM ATP, competitive tight-binding fit
Summary of the method: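 33P transfer from 100 µM ATP to a DNA-PK peptide (0.8 mg/mL) is measured after 45 min, using about 6 nM enzyme activated by 10 µg/mL sheared dsDNA (HEPES pH 7.5, MgCl2, DTT). Filter-bound counts fitted to a competitive tight-binding inhibition model give Ki.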

Compound	Ki
Cc1ccc(-c2cc(NCC(C)c3cncc4c3OCCC4)ncn2)cn1 (centres unmarked) [Compound 451]	< 30 nM
CNC(=O)c1ccc(C(C)CNc2cc(-c3cnc4c(cnn4C)c3)ncn2)c(OC)c1 (centres unmarked) [Compound 188]	< 30 nM
COc1cscc1C(C)CNc1cc(-c2ccc(N3CCN(C)CC3)nc2)ncn1 (centres unmarked) [Compound 146]	< 30 nM
CNC(=O)c1c(F)cnc2c([C@H](C)CNc3cc(-c4cccs4)ncn3)cccc12 [Compound 689]	< 30 nM
CNC(=O)c1ccc(C(C)CNc2cc(-c3cnc4c(cnn4C4CN(C(C)=O)C4)c3)ncn2)c(OC)c1 (centres unmarked) [Compound 248]	< 30 nM
CNC(=O)c1ccc(C(C)CNc2cc(-c3ccc(N4CCN(C(C)=O)CC4)nc3)ncn2)c(OC)c1 (centres unmarked) [Compound 130]	< 30 nM
CCCNc1ccc(-c2cc(NC[C@@H](C)c3ccc(C(=O)NC)cc3OC)ncn2)cn1 [Compound 361]	< 30 nM
CNC(=O)c1ccc([C@H](C)CNc2cc(-c3ccc(NCCCOC)nc3)ncn2)c(OC)c1 [Compound 375]	< 30 nM
CCNc1ccc(-c2cc(NC[C@@H](C)c3ccnc4c3OCC4)ncn2)cn1 [Compound 486]	< 30 nM
COc1ccccc1CCNc1cc(-c2cnc3[nH]ccc3c2)ncn1 [Compound 8]	< 30 nM
Cc1ncc(-c2cc(NC[C@@H](C)c3cccc4c(C(F)F)ccnc34)ncn2)cn1 [Compound 669]	< 30 nM
CNc1ccccc1[C@H](C)CNc1cc(-c2ccc(C(=O)NCCC#N)nc2)ncn1 [Compound 408]	< 30 nM
CNC(=O)c1ccnc2c([C@H](C)CNc3cc(-c4ccc(S(C)(=O)=O)cc4)ncn3)cccc12 [Compound 675]	< 30 nM
CC(CNc1cc(-c2cnc3c(cnn3CCO)c2)ncn1)c1ccnc2cccnc12 (centres unmarked) [Compound 400]	< 30 nM
CNC(=O)c1ccc([C@H](C)CNc2cc(-c3ccc(C)nc3)ncn2)c2ncccc12 [Compound 485]	< 30 nM
COCc1ccc(-c2cc(NC[C@@H](C)c3ccnc4c3OCCO4)ncn2)cc1 [Compound 458]	< 30 nM
C[C@H](CNc1cc(-c2ccc(N)nc2)ncn1)c1ccnc2c1OCC2 [Compound 594]	< 30 nM
CNC(=O)c1ccc(C(C)CNc2cc(-c3cnc4c(cnn4CCO)c3)ncn2)c(OC)c1 (centres unmarked) [Compound 153]	< 30 nM

Compound	Ki
CNC(=O)c1ccnc2c([C@H](C)CNc3cc(-c4cnc(NC)nc4)ncn3)cccc12 [Compound 579]	< 30 nM
CCS(=O)(=O)c1ccc(-c2cc(NC[C@@H](C)c3cccc4c(C(=O)NC)ccnc34)ncn2)cc1 [Compound 676]	< 30 nM
COc1ccccc1CCNc1cc(-c2cnc3c(ccn3CC3CC3)c2)ncn1 [Compound 40]	< 30 nM
Cc1ccc(-c2cc(NCCc3ccccc3OC3CC3)ncn2)cn1 [Compound 86]	< 30 nM
COc1cc(C(=O)NO)ccc1C(C)CNc1cc(-c2ccc(C)nc2)ncn1 (centres unmarked) [Compound 156]	< 30 nM
CNC(=O)c1ccnc2c([C@H](C)CNc3cc(-c4cnc(N5CCOCC5)nc4)ncn3)cccc12 [Compound 650]	< 30 nM
CC(CNc1cc(-c2ccc(N3CCN(C)CC3)nc2)ncn1)c1ccccc1OC1COC1 (centres unmarked) [Compound 102]	< 30 nM
C=CCNc1ccc(-c2cc(NC[C@@H](C)c3ccc(C(=O)NC)cc3OC)ncn2)cn1 [Compound 387]	< 30 nM
COCCn1ncc2cc(-c3cc(NCC(C)c4sccc4OC)ncn3)cnc21 (centres unmarked) [Compound 260]	< 30 nM
CNC(=O)c1c(F)cnc2c([C@H](C)CNc3cc(-c4cnc(C)nc4)ncn3)ccc(F)c12 [Compound 645]	< 30 nM
C[C@H](CNc1cc(-c2ccc(N3CCN(C)CC3)nc2)ncn1)c1cccc2c1OCC2 [Compound 132]	< 30 nM
CNC(=O)c1ccc(C(C)CNc2cc(-c3ccc(C4(CO)CC4)cc3)ncn2)c(OC)c1 (centres unmarked) [Compound 338]	< 30 nM
COc1sccc1C(C)CNc1cc(-c2cnc3c(cnn3C3CCN(C)CC3)c2)ncn1 (centres unmarked) [Compound 264]	< 30 nM
CC(CNc1cc(-c2cnc3c(cnn3C3CCN(C)CC3)c2)ncn1)c1cccc2cccnc12 (centres unmarked) [Compound 237]	< 30 nM
CNC(=O)c1c(F)cnc2c([C@H](C)CNc3cc(-c4cnc(C)nc4)ncn3)cccc12 [Compound 636]	< 30 nM
CNC(=O)c1ccc(C(C)CNc2cc(-c3ccc(CCOC)cc3)ncn2)c(OC)c1 (centres unmarked) [Compound 340]	< 30 nM
CN1CCN(c2ccc(-c3cc(NCCc4ccccc4OC4CC4)ncn3)cn2)CC1=O [Compound 142]	< 30 nM
CNC(=O)c1ccnc2c([C@H](C)CNc3cc(-c4cnc(C)nc4)ncn3)ccc(F)c12 [Compound 622]	< 30 nM

Further lines, results first:

Ki	Compound
< 30 nM	CNC(=O)c1ccc(-c2cc(NC[C@@H](C)c3cccc4c(C(=O)NC)ccnc34)ncn2)cc1 [Compound 754]
< 30 nM	CNC(=O)c1ccnc2c([C@H](C)CNc3cc(-c4cncc(N5CCOCC5)c4)ncn3)cccc12 [Compound 912]
< 30 nM	CNC(=O)c1ccnc2c([C@H](C)CNc3cc(-c4ccc(C(C)C)nc4)ncn3)ccc(F)c12 [Compound 853]
< 30 nM	CNC(=O)c1ccnc2c([C@H](C)CNc3cc(-c4cc(C)nc(OC)c4)ncn3)cccc12 [Compound 863]
< 30 nM	CNC(=O)c1ccnc2c([C@H](C)CNc3cc(-c4cncc(OC)c4)ncn3)cccc12 [Compound 878]
< 30 nM	CNC(=O)c1ccnc2c([C@H](C)CNc3cc(-c4ccc(N(C)CCOCC5CC5)nc4)ncn3)cccc12 [Compound 714]
< 30 nM	CNC(=O)c1ccnc2c([C@H](C)CNc3cc(-c4cnc(OC)c(Cl)c4)ncn3)cccc12 [Compound 949]
< 30 nM	CNC(=O)c1ccnc2c([C@H](C)CNc3cc(-c4ccc(OC)nc4)ncn3)ccc(F)c12 [Compound 908]
< 30 nM	CNC(=O)c1ccnc2c([C@H](C)CNc3cc(-c4cnc(CO)c(OC)c4)ncn3)cccc12 [Compound 821]
< 30 nM	CNC(=O)c1ccnc2c([C@H](C)CNc3cc(-c4ccc(N[C@@H]5COC[C@H]5O)nc4)ncn3)cccc12 [Compound 726]
< 30 nM	CNC(=O)c1ccnc2c([C@H](C)CNc3cc(-c4ccc(C(N)=O)cc4)ncn3)cccc12 [Compound 759]
< 30 nM	CNC(=O)c1c(F)cnc2c([C@H](C)CNc3cc(-c4cnc(OC)c(N)c4)ncn3)cccc12 [Compound 902]
< 30 nM	CNC(=O)c1c(F)cnc2c([C@H](C)CNc3cc(-c4ccc(C(C)(C)O)nc4)ncn3)cccc12 [Compound 866]
< 30 nM	CNC(=O)c1ccnc2c([C@H](C)CNc3cc(-c4cncc(-c5nnco5)c4)ncn3)cccc12 [Compound 960]
< 30 nM	CNC(=O)c1ccnc2c([C@H](C)CNc3cc(-c4cnc(N5CCN(CC(F)F)CC5)nc4)ncn3)cccc12 [Compound 757]
< 30 nM	CNC(=O)c1ccnc2c([C@H](C)CNc3cc(-c4cnc(COC)nc4)ncn3)cccc12 [Compound 886]
< 30 nM	CNCCN(C)c1ccc(-c2cc(NC[C@@H](C)c3cccc4c(C(=O)NC)ccnc34)ncn2)cn1 [Compound 706]
< 30 nM	CNC(=O)c1ccnc2c([C@H](C)CNc3cc(-c4ccc5c(c4)CNC5=O)ncn3)cccc12 [Compound 758]
< 30 nM	CNC(=O)c1ccnc2c([C@H](C)CNc3cc(-c4ccc(Nc5cnn(CCOC)c5)nc4)ncn3)cccc12 [Compound 737]
< 30 nM	CNC(=O)c1ccnc2c([C@H](C)CNc3cc(-c4cnc(C(C)(C)C)nc4)ncn3)cccc12 [Compound 791]
